pIC50: −log10 of the molar value.
Tests used:
p38alpha = target: T1, p38alpha (Homo sapiens, UniProt Q16539); test: P38alpha enzyme inhibition assay (Alphascreen kinase activity assay); type: biochemical; details: IC50 classes; 2 hours preincubation at 25° C., 250 μM ATP; read-out: p38α inhibition
T1 construct: purchased Invitrogen PV3304
How it was run: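 p38alpha with 0.3 μg/ml ATF-2 fusion protein in HEPES pH 7.5 buffer (10 mM MgCl2, 2 mM DTT, 1% DMSO); compounds preincubated 2 h at 25° C, then 250 μM ATP added for 1 h at 25° C. Phospho-ATF2 detected by AlphaScreen luminescence with anti-phospho-ATF2 antibody; IC50 from concentration-response curves.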

BEAS-2B cells = test: TNFα-stimulated BEAS-2B IL-8 release assay; type: cell-based; details: Homo sapiens, IC50 classes, TNF-α 10 ng/ml, 18 h, read-out: TNFα-stimulated BEAS-2B IL-8 release inhibition
How it was run: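 BEAS-2B cells at 80-90% confluence were pre-incubated 1 h with p38 inhibitors, then stimulated 18 h at 37 °C with TNF-α (10 ng/ml). Supernatant IL-8 was measured by ELISA. IC50 was taken from sigmoidal variable-slope fits of % inhibition of control release.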

[1] = system: Peripheral Blood Mononuclear Cells (PBMCs); test: LPS-stimulated PBMC TNFα release assay; type: cell-based; details: IC50 classes; human PBMC, LPS 10 ng/ml, 18 h; read-out: LPS-stimulated PBMC TNFα release inhibition
How it was run: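 Human PBMCs from healthy donors, adhered 3 h in serum-free RPMI, received compound for 1 h in 1% FBS medium before 10 ng/ml LPS for 18 h. Supernatant TNFα was measured by MSD; IC50 from percentage inhibition of control release, at least three separate experiments.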

T1 sequence (Q16539 whole entry): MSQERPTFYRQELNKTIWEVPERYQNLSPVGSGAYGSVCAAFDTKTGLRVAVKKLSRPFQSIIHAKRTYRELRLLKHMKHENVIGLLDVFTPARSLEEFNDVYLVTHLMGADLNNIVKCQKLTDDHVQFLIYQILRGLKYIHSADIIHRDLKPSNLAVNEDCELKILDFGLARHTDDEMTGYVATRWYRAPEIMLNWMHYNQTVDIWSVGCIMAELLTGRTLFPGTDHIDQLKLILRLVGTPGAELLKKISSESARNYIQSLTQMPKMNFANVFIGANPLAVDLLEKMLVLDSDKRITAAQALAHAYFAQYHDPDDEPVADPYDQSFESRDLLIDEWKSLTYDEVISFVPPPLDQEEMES

Compound | pIC50 (p38alpha) | pIC50 (BEAS-2B cells) | pIC50 [1]
CN1CCC[C@@]1(C)c1nnc2ccc(O[C@@H]3CC[C@H](NC(=O)Nc4cc(CNS(C)(=O)=O)cc(C(C)(C)C)c4)c4ccccc43)cn12 [Example 45, N-[3-tert-Butyl-5-(3-{(1S,4R)-4-[3-((S)-1,2-dimethyl-pyrrolidin-2-yl)-[1,2,4]triazolo[4,3-a]pyridin-6-yloxy]-1,2,3,4-tetrahydro-naphthalen-1-yl}-ureido)-benzyl]-methanesulfonamide] | > 9.00 | > 9.52 | > 9.00
COC(=O)Nc1cc(NC(=O)N[C@H]2CC[C@@H](Oc3ccc4nnc([C@]5(C)CCCN5C)n4c3)c3ccccc32)cc(C(C)(C)C)c1 [Example 46, [3-tert-Butyl-5-(3-{(1S,4R)-4-[3-((S)-1,2-dimethyl-pyrrolidin-2-yl)-[1,2,4]triazolo[4,3-a]pyridin-6-yloxy]-1,2,3,4-tetrahydro-naphthalen-1-yl}-ureido)-phenyl]-carbamic acid methyl ester] | 8.00 to 9.00 | > 9.52 | > 9.00
CN1CCC[C@@]1(C)c1nnc2ccc(O[C@@H]3CC[C@H](NC(=O)Nc4cc(C(C)(C)C)cc(S(C)(=O)=O)c4)c4ccccc43)cn12 [Example 47, 1-(3-tert-Butyl-5-methanesulfonyl-phenyl)-3-{(1S,4R)-4-[3-((S)-1,2-dimethyl-pyrrolidin-2-yl)-[1,2,4]triazolo[4,3-a]pyridin-6-yloxy]-1,2,3,4-tetrahydro-naphthalen-1-yl}-urea] | > 9.00 | > 9.52 | > 9.00
CN1CCC[C@@]1(C)c1nnc2ccc(O[C@@H]3CC[C@H](NC(=O)Nc4cc(CO)cc(C(C)(C)C)c4)c4ccccc43)cn12 [Example 49, 1-(3-tert-Butyl-5-hydroxymethyl-phenyl)-3-{(1S,4R)-4-[3-((S)-1,2-dimethyl-pyrrolidin-2-yl)-[1,2,4]triazolo[4,3-a]pyridin-6-yloxy]-1,2,3,4-tetrahydro-naphthalen-1-yl}-urea] | > 9.00 | > 9.52 | > 9.00
CN1CCC[C@@]1(C)c1nnc2ccc(O[C@@H]3CC[C@H](NC(=O)Nc4cc(C(=O)NCCO)cc(C(C)(C)C)c4)c4ccccc43)cn12 [Example 51, 3-tert-Butyl-5-(3-{(1S,4R)-4-[3-((S)-1,2-dimethyl-pyrrolidin-2-yl)-[1,2,4]triazolo[4,3-a]pyridin-6-yloxy]-1,2,3,4-tetrahydro-naphthalen-1-yl}-ureido)-N-(2-hydroxy-ethyl)-benzamide] | > 9.00 | 9.00 to 9.52 | > 9.00
CN1CCC[C@@]1(C)c1nnc2ccc(O[C@@H]3CC[C@H](NC(=O)Nc4cc(C(N)=O)cc(C(C)(C)C)c4)c4ccccc43)cn12 [Example 53, 3-tert-Butyl-5-(3-{(1S,4R)-4-[3-((S)-1,2-dimethyl-pyrmlidin-2-yl)-[1,2,4]triazolo[4,3-a]pyridin-6-yloxy]-1,2,3,4-tetrahydro-naphthalen-1-yl}-ureido)-benzamide] | > 9.00 | > 9.52 | > 9.00
CNC(=O)c1cc(NC(=O)N[C@H]2CC[C@@H](Oc3ccc4nnc([C@@H]5CCCN5C)n4c3)c3ccccc32)cc(C(C)(C)C)c1 [Example 54, 3-tert-Butyl-N-methyl-5-(3-{(1S,4R)-4-[3-((S)-1-methyl-pyrrolidin-2-yl)-[1,2,4]triazolo[4,3-a]pyridin-6-yloxy]-1,2,3,4-tetrahydro-naphthalen-1-yl}-ureido)-benzamide] | > 9.00 | < 9.00 | 8.30 to 9.00
CNC(=O)c1cc(NC(=O)N[C@H]2CC[C@@H](Oc3ccc4nnc([C@]5(C)CCCN5C)n4c3)c3ccccc32)cc(C(C)(C)C)c1 [Example 55, 3-tert-Butyl-5-(3-{(1S,4R)-4-[3-((S)-1,2-dimethyl-pyrrolidin-2-yl)-[1,2,4]triazolo[4,3-a]pyridin-6-yloxy]-1,2,3,4-tetrahydro-naphthalen-1-yl}-ureido)-N-methyl-benzamide] | > 9.00 | > 9.52 | > 9.00
Cc1c(NC(=O)N[C@H]2CC[C@@H](Oc3ccc4nnc([C@]5(C)CCCN5C)n4c3)c3ccccc32)cc(C(C)(C)C)cc1NS(C)(=O)=O [Example 56, N-[5-tert-Butyl-3-(3-{(1S,4R)-4-[3-((S)-1,2-dimethyl-pyrrolidin-2-yl)-[1,2,4]triazolo[4,3-a]pyridin-6-yloxy]-1,2,3,4-tetrahydro-naphthalen-1-yl}-ureido)-2-methyl-phenyl]-methanesulfonamide] | > 9.00 | > 9.52 | > 9.00
Cc1c(NC(=O)N[C@H]2CC[C@@H](Oc3ccc4nnc([C@@H]5CCCN5C)n4c3)c3ccccc32)cc(C(C)(C)C)cc1NS(C)(=O)=O [Example 57, N-[5-tert-Butyl-2-methyl-3-(3-{(1S,4R)-4-[3-((S)-1-methyl-pyrrolidin-2-yl)-[1,2,4]triazolo[4,3,a]pyridin-6-yloxy]-1,2,3,4-tetrahydro-naphthalen-1-yl}-ureido)-phenyl]-methanesulfonamide] | > 9.00 | < 9.00 | 8.30 to 9.00
CN1CCC[C@H]1c1nnc2ccc(O[C@@H]3CC[C@H](NC(=O)Nc4cc(N5CCOCC5)cc(C(C)(C)C)c4)c4ccccc43)cn12 [Example 58, 1-(3-tert-Butyl-5-morpholin-4-yl-phenyl)-3-{(1S,4R)-4-[3-((S)-1-methyl-pyrrolidin-2-yl)-[1,2,4]triazolo[4,3-a]pyridin-6-yloxy]-1,2,3,4-tetrahydro-naphthalen-1-yl}-urea] | 8.00 to 9.00 | 9.00 to 9.52 | < 8.30
CN1CCC[C@@]1(C)c1nnc2ccc(O[C@@H]3CC[C@H](NC(=O)Nc4cc(C(C)(C)C)ccc4CO)c4ccccc43)cn12 [Example 59, 1-(5-tert-Butyl-2-hydroxymethyl-phenyl)-3-{(1S,4R)-4-[3-((S)-1,2-dimethyl-pyrrolidin-2-yl)-[1,2,4]triazolo[4,3-a]pyridin-6-yloxy]-1,2,3,4-tetrahydro-naphthalen-1-yl}-urea] | > 9.00 | > 9.52 | > 9.00
CN1CCCC[C@H]1c1nnc2ccc(O[C@@H]3CC[C@H](NC(=O)Nc4cc(NS(C)(=O)=O)cc(C(C)(C)C)c4)c4ccccc43)cn12 [Example 61, N-[3-tert-Butyl-5-(3-{(1S,4R)-4-[3-((S)-1-methyl-piperidin-2-yl)-[1,2,4]triazolo[4,3-a]pyridin-6-yloxy]-1,2,3,4-tetrahydro-naphthalen-1-yl}-ureido)-phenyl]-methanesulfonamide] | > 9.00 | < 9.00 | 8.30 to 9.00
CN1CCN(C(C)(C)c2nnc3ccc(O[C@@H]4CC[C@H](NC(=O)Nc5cc(NS(C)(=O)=O)cc(C(C)(C)C)c5)c5ccccc54)cn23)CC1 [Example 62, N-{3-tert-Butyl-5-[3-((1S,4R)-4-{3-[1-methyl-1-(4-methyl-piperazin-1-yl)-ethyl]-[1,2,4]triazolo[4,3-a]pyridin-6-yloxy}-1,2,3,4-tetrahydro-naphthalen-1-yl)-ureido]-phenyl}-methanesulfonamide] | > 9.00 | < 9.00 | < 8.30
CN1CC[C@H]1c1nnc2ccc(O[C@@H]3CC[C@H](NC(=O)Nc4cc(NS(C)(=O)=O)cc(C(C)(C)C)c4)c4ccccc43)cn12 [Example 63, N-[3-tert-Butyl-5-(3-{(1S,4R)-4-[3-((S)-1-methyl-azetidin-2-yl)-[1,2,4]triazolo[4,3-a]pyridin-6-yloxy]-1,2,3,4-tetrahydro-naphthalen-1-yl}-ureido)-phenyl]-methanesulfonamide] | 8.00 to 9.00 | < 9.00 | < 8.30
CN1CCC[C@@]1(C)c1nnc2ccc(O[C@@H]3CC[C@H](NC(=O)Nc4cc(N5CCNCC5)cc(C(C)(C)C)c4)c4ccccc43)cn12 [Example 64, 1-(3-tert-Butyl-5-piperazin-1-yl-phenyl)-3-{(1S,4R)-4-[3-((S)-1,2-dimethyl-pyrrolidin-2-yl)-[1,2,4]triazolo[4,3-a]pyridin-6-yloxy]-1,2,3,4-tetrahydro-naphthalen-1-yl}-urea] | > 9.00 | < 9.00 | < 8.30
CN(C)Cc1cc(NC(=O)N[C@H]2CC[C@@H](Oc3ccc4nnc([C@]5(C)CCCN5C)n4c3)c3ccccc32)cc(C(C)(C)C)c1 [Example 65, 1-(3-tert-Butyl-5-dimethylaminomethyl-phenyl)-3-{(1S,4R)-4-[3-((S)-1,2-dimethyl-pyrrolidin-2-yl)-[1,2,4]triazolo[4,3-a]pyridin-6-yloxy]-1,2,3,4-tetrahydro-naphthalen-1-yl}-urea] | > 9.00 | 9.00 to 9.52 | 8.30 to 9.00
C[C@H]1CCCCN1c1nnc2ccc(O[C@@H]3CC[C@H](NC(=O)Nc4cc(CN(C)C)cc(C(C)(C)C)c4)c4ccccc43)cn12 [Example 66, 1-(3-tert-Butyl-5-dimethylaminomethyl-phenyl)-3-{(1S,4R)-4-[3-((S)-2-methyl-piperidin-1-yl)-[1,2,4]triazolo[4,3-a]pyridin-6-yloxy]-1,2,3,4-tetrahydro-naphthalen-1-yl}-urea] | > 9.00 | > 9.52 | 8.30 to 9.00

From patent US10100050B2 (CHIESI FARMACEUTICI S.P.A., priority 2015, dated 2018)
